Like-named read-outs stand apart in the source and are kept apart here.
Assays:
immobilized RTX-TCO = assay: Competitive binding assay on immobilized RTX-TCO; details: non-labelled conjugate as competitor, 30 min RT
Experimental: Binding on immobilized RTX-TCO was conducted using high protein-binding capacity Nunc MaxiSorp™ 96-well plates (Thermo Fisher Scientific, Vienna, Austria). Coating was performed by adding 20 µg of antibody (RTX or RTX-TCO) dissolved in 100 µL coating buffer (0.1 M NaHCO3, pH 8.5) to each well and after 2 h incubation at RT the plate was left at 4 °C overnight both under the exclusion of light. After removal of the coating solution 200 µL of blocking buffer (1% BSA in PBS) was added, left for 1 h at room temperature and subsequently each well was washed twice with 200 µL binding buffer (0.1% BSA in PBS). Hereafter, the radioligand was mixed with increasing concentrations of the competitor (=non-labelled conjugate), diluted in binding buffer and 100 µL of the mixture was added to each well. After 30 min at RT the supernatant was removed, each well was washed three times with 150 µL binding buffer and the coating film was finally detached with 2 × 150 µL of hot (80 °C) 2 N sodium hydroxide (NaOH). The NaOH fraction was taken for gamma counter measurement to determine the percentage of binding in contrast to the standard followed by non-liner curve fitting using Origin 6.1 software (Origin Inc., Northampton, MA, USA) to calculate the apparent half maximum inhibitory concentration of the competitor (n = 3, 4 replicates).

[1] = Serum protein binding, Sephadex G-50 size exclusion; format: in vitro ADME; details: ^68Ga-labelled compound, human serum, 37 °C, mean ± SD (n = 3)
Experimental: Serum protein binding was determined using Sephadex G-50 (GE Healthcare Vienna, Austria) size exclusion chromatography. Aliquots (50 µL, n = 3) of the radioligand solution (~10 µM) were incubated in 450 µL freshly prepared human serum or 450 µL PBS (controls) and were kept at 37 °C. After 1, 2, and 4 h aliquots (25 µL) were directly transferred to the column (MicroSpin G-50, GE Healthcare) and after centrifugation (2 min, 2000 rcf) the column containing the free conjugate and the eluate containing the protein-bound conjugate were measured in the gamma counter. The percent of activity in both fractions was calculated thereafter.

[2] = Distribution coefficient (logD), octanol/PBS; format: physicochemical; details: mean ± SD (n = 3); for LogD (pH 7.4): ^68Ga-labelled compound
Experimental: To determine the distribution of the ^68Ga-labelled conjugates between an organic (octanol) and aqueous (PBS) layer, aliquots (50 µL) of the tracers (~5 µM) were diluted in 1 mL of octanol/PBS (1:1, v/v). The mixture was vortexed at 1400 rpm (MS 3 basic vortexer, IKA, Staufen, Germany) for 15 min at RT followed by centrifugation for 2 min at 4500 rpm. Subsequently, aliquots (50 µL) of both layers were collected and measured in the gamma counter (Wizard2 3”, Perkin Elmer, Waltham, MA, USA) followed by logD calculation (n = 3, six replicates).

[3] = tested on: CD20-expressing Raji cells; assay: FACS analysis of antibody binding to Raji cells; format: cell-based; details: antibody at 20 µM, APC-labelled anti-human IgG Fc secondary antibody
Experimental: The humanoid lymphoblast-like CD20-expressing B-lymphocyte cells (Raji cells) were purchased from American Type Culture Collection (ATCC, Manassas, VA, USA). Flow cytometric analysis of CD20 expression was evaluated on (Raji cells) adjusted to 5 × 10^5 cells/sample in DMEM (including 10% FCS, 1% Pen/Strep). Cells were incubated with FC-Block (containing CD16/CD32 (1:200), e-Bioscience, Thermo Fisher Scientific, Vienna, Austria) for 15 min at 4 °C in order to avoid signals from non-specific binding. The following antibodies were used: RTX-TCO and RTX, both at 20 µM (f. c.). As secondary antibody a APC-labelled anti-human IgG Fc (clone: HP6017; BioLedgend, San Diego, CA, USA) at a dilution of 1:100 was used. Antibodies were incubated for at least 15 min at 4 °C. FACS analysis was performed on BD LSRFortessa™ (Cell Analyzer, BD Bioscience, San Jose, CA, USA). As internal control samples unstained or stained with either primary or secondary antibodies were analyzed. FACS-data was analyzed by FlowJo v10 software.

[4] = radioligand [^68Ga]Ga-Tz-dimer, read-out: Competitor concentration reducing binding of [^68Ga]Ga-Tz-dimer by 50%
[5] = radioligand [^68Ga]Ga-Tz-monomer, read-out: Competitor concentration reducing binding of [^68Ga]Ga-Tz-monomer by 50%
[6] = radioligand [^68Ga]Ga-Tz-trimer, read-out: Competitor concentration reducing binding of [^68Ga]Ga-Tz-trimer by 50%

Row | IC50 (immobilized RTX-TCO; [4]) [nM] | IC50 (immobilized RTX-TCO; [5]) [nM] | IC50 (immobilized RTX-TCO; [6]) [nM] | Protein Binding (%) 1 h ([1]; 1 h) [%] | Protein Binding (%) 2 h ([1]; 2 h) [%] | Protein Binding (%) 4 h ([1]; 4 h) [%] | LogD (pH 7.4) [2] | fraction unbound at 1 h ([1]; 1 h) | fraction unbound at 2 h ([1]; 2 h) | fraction unbound at 4 h ([1]; 4 h) | logD ([2]; octanol/PBS (1:1, v/v), pH 7.4, ^68Ga-labelled compound) | Compound | Target specificity by FACS [3]
1 | 95 ± 25 | 112 ± 6 | 258 ± 60 | 67.0 ± 2.4 | 65.9 ± 1.3 | 68.4 ± 0.3 | −1.35 ± 0.01 |  |  |  |  | CC(=O)NC1CCCN(O)C(=O)/C=C(/C)CCOC(=O)C(NC(=O)CCOCCOCCOCCOCCOCCC(=O)NCc2ccc(-c3nncnn3)cc2)CCCN(O)C(=O)/C=C(/C)CCOC(=O)C(NC(=O)CCOCCOCCOCCOCCOCCC(=O)NCc2ccc(-c3nncnn3)cc2)CCCN(O)C(=O)/C=C(/C)CCOC1=O (centres unmarked) [Tz-dimer, MAFC-(PEG5-Tz)2] | 
2 | 865 ± 263 | 486 ± 52 | 2990 ± 1660 |  |  |  |  | 0.382 | 0.362 | 0.36 | -1.64 ± 0.02 | CC(=O)NC1CCCN(O)C(=O)/C=C(/C)CCOC(=O)C(NC(=O)CCOCCOCCOCCOCCOCCC(=O)NCc2ccc(-c3nncnn3)cc2)CCCN(O)C(=O)/C=C(/C)CCOC(=O)C(NC(C)=O)CCCN(O)C(=O)/C=C(/C)CCOC1=O (centres unmarked) [Tz-monomer, DAFC-PEG5-Tz] | 
3 | 92 ± 15 | 100 ± 10 | 147 ± 49 | 70.5 ± 0.7 | 69.5 ± 0.4 | 67.8 ± 0.4 | −1.00 ± 0.06 |  |  |  |  | C/C1=C/C(=O)N(O)CCCC(NC(=O)CCOCCOCCOCCOCCOCCC(=O)NCc2ccc(-c3nncnn3)cc2)C(=O)OCC/C(C)=C\C(=O)N(O)CCCC(NC(=O)CCOCCOCCOCCOCCOCCC(=O)NCc2ccc(-c3nncnn3)cc2)C(=O)OCC/C(C)=C\C(=O)N(O)CCCC(NC(=O)CCOCCOCCOCCOCCOCCC(=O)NCc2ccc(-c3nncnn3)cc2)C(=O)OCC1 (centres unmarked) [Tz-trimer, FSC-(PEG5-Tz)3] | 

More lines, now with the values behind:

Row | Compound | IC50 (immobilized RTX-TCO; [4]) [nM] | IC50 (immobilized RTX-TCO; [5]) [nM] | IC50 (immobilized RTX-TCO; [6]) [nM] | Protein Binding (%) 1 h ([1]; 1 h) [%] | Protein Binding (%) 2 h ([1]; 2 h) [%] | Protein Binding (%) 4 h ([1]; 4 h) [%] | LogD (pH 7.4) [2] | fraction unbound at 1 h ([1]; 1 h) | fraction unbound at 2 h ([1]; 2 h) | fraction unbound at 4 h ([1]; 4 h) | logD ([2]; octanol/PBS (1:1, v/v), pH 7.4, ^68Ga-labelled compound) | Target specificity by FACS [3]
4 | TCO-modified RTX: anti-CD20 monoclonal antibody rituximab modified with trans-cyclooctene (TCO-NHS ester) |  |  |  |  |  |  |  |  |  |  |  | high target specificity
5 | rituximab [non-modified RTX, reference compound] |  |  |  |  |  |  |  |  |  |  |  | high target specificity

— PMC6316846, “Pretargeted Imaging with Gallium-68—Improving the Binding Capability by Increasing the Number of Tetrazine Motifs” (Pharmaceuticals, 2018)
